In US20230146675A1, “PYRIMIDO[5,4-d]PYRIMIDINE DERIVATIVES AS ENT INHIBITORS FOR THE TREATMENT OF CANCERS, AND COMBINATION THEREOF WITH ADENOSINE RECEPTOR ANTAGONISTS” (ITEOS BELGIUM SA, priority 2020, published 2023):

These compounds were tested against T1, human ENT1 (Homo sapiens, UniProt Q99808) (assay: ENT1 binding assay (competition with Sahenta-DY647 on JAR cells)). Conditions: binned IC50.
T1 sequence (Q99808 1-456): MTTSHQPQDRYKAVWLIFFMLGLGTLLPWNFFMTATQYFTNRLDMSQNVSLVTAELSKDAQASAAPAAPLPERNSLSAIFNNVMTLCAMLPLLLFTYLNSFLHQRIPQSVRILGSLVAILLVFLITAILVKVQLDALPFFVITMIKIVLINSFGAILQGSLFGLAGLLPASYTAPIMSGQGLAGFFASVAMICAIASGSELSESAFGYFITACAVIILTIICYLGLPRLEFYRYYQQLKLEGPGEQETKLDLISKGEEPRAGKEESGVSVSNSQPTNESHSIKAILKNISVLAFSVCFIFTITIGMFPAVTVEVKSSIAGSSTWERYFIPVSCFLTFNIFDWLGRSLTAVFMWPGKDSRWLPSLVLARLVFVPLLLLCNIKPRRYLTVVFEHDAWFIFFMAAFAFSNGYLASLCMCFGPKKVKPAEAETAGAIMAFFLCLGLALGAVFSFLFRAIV
Set-up: JAR cells expressing ENT1 were bought from ATCC; host or cells: JAR cells
Method in brief: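 JAR cells were incubated with test compounds and the fluorescent ligand Sahenta-DY647 in competition. Plates were washed twice by centrifugation (4 min, 400 rcf, 4 °C). Binding potency was derived from the final fluorescence.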
`COCCN(CCOC)c1nc(N2CCC(OC)CC2)c2nc(N3CCn4ncnc4C3)nc(N3CCN(C)C(=O)C3)c2n1` [Compound 282, 4-(6-(bis(2-methoxyethyl)amino)-2-(5,6-dihydro-[1,2,4]triazolo[1,5-a]pyrazin-7(8H)-yl)-8-(4-methoxypiperidin-1-yl)pyrimido[5,4-d]pyrimidin-4-yl)-1-methylpiperazin-2-one] gave an IC50 of 100 to 500 nM. Work on `COCCN(CCOC)c1nc(N2CCC(OC)CC2)c2nc(N(CCOC)CCOCCCN3CCOCC3)nc(N3CCC(OC)CC3)c2n1` [Compound 44, N2,N2,N6-tris(2-methoxyethyl)-4,8-bis(4-methoxypiperidin-1-yl)-N6-(2-(3-morpholinopropoxy)ethyl)pyrimido[5,4-d]pyrimidine-2,6-diamine] yielded an IC50 of 500 to 1000 nM. Compound `COCCN(CCOC)c1nc(N2CCC(C)(OC)CC2)c2nc(N(CCOC)CCOC)nc(N3CCC(C)(OC)CC3)c2n1` [Compound 201, 4,8-bis(4-methoxy-4-methylpiperidin-1-yl)-N2,N2,N6,N6-tetrakis(2-methoxyethyl)pyrimido[5,4-d]pyrimidine-2,6-diamine] has an IC50 of 100 to 500 nM. With `COCCN(CCOC)c1nc(N2CC(O)(C(F)(F)F)C2)c2nc(N(CCO)CCO)nc(N3CCC(OC)CC3)c2n1` [Compound 326, 2,2′-((6-(bis(2-methoxyethyl)amino)-8-(3-hydroxy-3-(trifluoromethyl)azetidin-1-yl)-4-(4-methoxypiperidin-1-yl)pyrimido[5,4-d]pyrimidin-2-yl)azanediyl)bis(ethan-1-ol)] the IC50 was 500 to 1000 nM. In the case of `COCCN(CCOC)c1nc(N2CCN(C)C(=O)C2)c2nc(N3CCn4cnnc4C3)nc(N3CCC(OC)CC3)c2n1` [Compound 299, 4-(2-(bis(2-methoxyethyl)amino)-6-(5,6-dihydro-[1,2,4]triazolo[4,3-a]pyrazin-7(8H)-yl)-8-(4-methoxypiperidin-1-yl)pyrimido[5,4-d]pyrimidin-4-yl)-1-methylpiperazin-2-one], the IC50 is reported as 100 to 500 nM. Work on `COCCN(CCOC)c1nc(N2CCN(c3cnccn3)CC2)c2nc(N(CCOC)CCOC)nc(N3CCC(OC)CC3)c2n1` [Compound 120, N2,N2,N6,N6-tetrakis(2-methoxyethyl)-4-(4-methoxypiperidin-1-yl)-8-(4-(pyrazin-2-yl)piperazin-1-yl)pyrimido[5,4-d]pyrimidine-2,6-diamine] yielded an IC50 of 500 to 1000 nM. In the case of `COCCN(CCOC)c1nc(N2CCC(OC)CC2)c2nc(N(CCOC)CCOC)nc(NCc3cccc(-n4cccn4)c3)c2n1` [Compound 146, N4-(3-(1H-pyrazol-1-yl)benzyl)-N2,N2,N6,N6-tetrakis(2-methoxyethyl)-8-(4-methoxypiperidin-1-yl)pyrimido[5,4-d]pyrimidine-2,4,6-triamine], the IC50 is reported as 100 to 500 nM. `COCCN(CCOC)c1nc(N2CCN(C)C(=O)C2)c2nc(N(CCOC)CCOC)nc(N3CCCCC3)c2n1` [Compound 319, 4-(2,6-bis(bis(2-methoxyethyl)amino)-8-(piperidin-1-yl)pyrimido[5,4-d]pyrimidin-4-yl)-1-methylpiperazin-2-one] gave an IC50 of 100 to 500 nM. Compound `CCN(CCN1CCCC1)c1nc(N2CCN(C)C(=O)C2)c2nc(N(CCOC)Cc3cc(OC)c(OC)c(OC)c3)nc(N3CCC(OC)CC3)c2n1` [Compound 300, 4-(2-(ethyl(2-(pyrrolidin-1-yl)ethyl)amino)-6-((2-methoxyethyl)(3,4,5-trimethoxybenzyl)amino)-8-(4-methoxypiperidin-1-yl)pyrimido[5,4-d]pyrimidin-4-yl)-1-methylpiperazin-2-one] has an IC50 of 100 to 500 nM. `COCCN(CCOC)c1nc(N2CCN(C)C(=O)C2)c2nc(N3CCC(S(C)(=O)=O)CC3)nc(N3CCC(OC)CC3)c2n1` [Compound 292, 4-(2-(bis(2-methoxyethyl)amino)-8-(4-methoxypiperidin-1-yl)-6-(4-(methyisulfonyl)piperidin-1-yl)pyrimido[5,4-d]pyrimidin-4-yl)-1-methylpiperazin-2-one] gave an IC50 of 100 to 500 nM. `COCCN(CCOC)c1nc(N2CCC(F)(F)CC2)c2nc(N(CCOC)CCOC)nc(N3CCC(F)(F)CC3)c2n1` [Compound 195, 4,8-bis(4,4-difluoropiperidin-1-yl)-N2,N2,N6,N6-tetrakis(2-methoxyethyl)pyrimido[5,4-d]pyrimidine-2,6-diamine] was tested, and the IC50 was 100 to 500 nM. `COCCN(Cc1ccc(C(=O)O)c(OC)c1)c1nc(N2CCN(C)C(=O)C2)c2nc(N(CCOC)CCOC)nc(N3CCC(OC)CC3)c2n1` [Compound 337, 4-(((6-(bis(2-methoxyethyl)amino)-8-(4-methoxypiperidin-1-yl)-4-(4-methyl-3-oxopiperazin-1-yl)pyrimido[5,4-d]pyrimidin-2-yl)(2-methoxyethyl)amino)methyl)-2-methoxybenzoic acid] showed an IC50 of 100 to 500 nM. With `COCCCCNc1nc(N(CCOC)CCOC)nc2c(N3CCC(OC)CC3)nc(N(CCOC)CCOC)nc12` [Compound 181, N4-(4-methoxybutyl)-N2,N2,N6,N6-tetrakis(2-methoxyethyl)-8-(4-methoxypiperidin-1-yl)pyrimido[5,4-d]pyrimidine-2,4,6-triamine] the IC50 was 500 to 1000 nM. With `COCCN(CCOC)c1nc(N2CC(O)(C(F)(F)F)C2)c2nc(N(CCOC)CCOC)nc(N3CCC(OC)CC3)c2n1` [Compound 111, 1-(2,6-bis(bis(2-methoxyethyl)amino)-8-(4-methoxypiperidin-1-yl)pyrimido[5,4-d]pyrimidin-4-yl)-3-(trifluoromethyl)azetidin-3-ol] the IC50 was less than 100 nM. Work on `COCCN(CCOC)c1nc(N2CCN(C3CC3)C(=O)C2)c2nc(N(CCO)CCO)nc(N3CCC(OC)CC3)c2n1` [Compound 316, 4-(6-(bis(2-hydroxyethyl)amino)-2-(bis(2-methoxyethyl)amino)-8-(4-methoxypiperidin-1-yl)pyrimido[5,4-d]pyrimidin-4-yl)-1-cyclopropylpiperazin-2-one] yielded an IC50 of 500 to 1000 nM. In the case of `COCCN(CCOC)c1nc(N2CC(F)C2)c2nc(N(CCOC)CCOC)nc(N3CCC(OC)CC3)c2n1` [Compound 99, 4-(3-fluoroazetidin-1-yl)-N2,N2,N6,N6-tetrakis(2-methoxyethyl)-8-(4-methoxypiperidin-1-yl)pyrimido[5,4-d]pyrimidine-2,6-diamine], the IC50 is reported as 100 to 500 nM. Compound `COCCN(CCOC)c1nc(N2CCS(=O)(=O)CC2)c2nc(N(CCOC)CCOC)nc(NCc3ccccc3)c2n1` [Compound 7] has an IC50 of less than 100 nM. `COCCN(CCOC)c1nc(N2CC(F)(F)C2)c2nc(N(CCOC)CCOC)nc(N3CCC(OC)CC3)c2n1` [Compound 105, 4-(3,3-difluoroazetidin-1-yl)-N2,N2,N6,N6-tetrakis(2-methoxyethyl)-8-(4-methoxypiperidin-1-yl)pyrimido[5,4-d]pyrimidine-2,6-diamine] gave an IC50 of 100 to 500 nM. In the case of `COCCN(CCC(=O)NS(=O)(=O)N(C)C)c1nc(N2CCN(C)C(=O)C2)c2nc(N(CCOC)CCOC)nc(N3CCC(OC)CC3)c2n1` [Compound 334, 3-((6-(bis(2-methoxyethyl)amino)-8-(4-methoxypiperidin-1-yl)-4-(4-methyl-3-oxopiperazin-1-yl)pyrimido[5,4-d]pyrimidin-2-yl)(2-methoxyethyl)amino)-N-(N,N-dimethylsulfamoyl)propanamide], the IC50 is reported as 500 to 1000 nM. Compound `COCCN(CCOC)c1nc(N2CCN(c3nnc(C)o3)CC2)c2nc(N(CCOC)CCOC)nc(N3CCC(OC)CC3)c2n1` [Compound 135, N2,N2,N6,N6-tetrakis(2-methoxyethyl)-4-(4-methoxypiperidin-1-yl)-8-(4-(5-methyl-1,3,4-oxadiazol-2-yl)piperazin-1-yl)pyrimido[5,4-d]pyrimidine-2,6-diamine] has an IC50 of 500 to 1000 nM.
